Values belong to the compound of their own block, whether it stands above or below them.
How the values were obtained:
[1] = biological target: T1, Casein kinase II subunit alpha (Homo sapiens, UniProt P68400); assay: Inhibition of CK2alpha (unknown origin)
[2] = biological target: Human immunodeficiency virus type 1 reverse transcriptase (Human immunodeficiency virus 1) (UniProt Q72547); assay: Binding affinity to HIV1 reverse transcriptase relative to control
[3] = biological target: T1, Casein kinase II subunit alpha; assay: Competitive inhibition of human wild type CK2alpha by Dixon plot analysis
[4] = biological target: T1, Casein kinase II subunit alpha; assay: Inhibition of human wild type CK2alpha
[5] = biological target: Cellular tumor antigen p53 (Homo sapiens, UniProt P04637, Y220C); assay: Stabilization of human p53 Y220C mutant by differential scanning calorimetry
Casein kinase II = Casein kinase II (Homo sapiens, UniProt P19784+P67870+P68400); assay: Inhibition of CK2 (unknown origin); format: protein-complex assay
[6] = biological target: T2, Adenosine kinase (Toxoplasma gondii) (UniProt Q9TVW2); assay: Binding affinity to Toxoplasma gondii adenosine kinase assessed as formation of [14C]AMP from [14C]adenosine and ATP after 10 mins by liquid scintillation counting method relative to control
T2 sequence (whole entry): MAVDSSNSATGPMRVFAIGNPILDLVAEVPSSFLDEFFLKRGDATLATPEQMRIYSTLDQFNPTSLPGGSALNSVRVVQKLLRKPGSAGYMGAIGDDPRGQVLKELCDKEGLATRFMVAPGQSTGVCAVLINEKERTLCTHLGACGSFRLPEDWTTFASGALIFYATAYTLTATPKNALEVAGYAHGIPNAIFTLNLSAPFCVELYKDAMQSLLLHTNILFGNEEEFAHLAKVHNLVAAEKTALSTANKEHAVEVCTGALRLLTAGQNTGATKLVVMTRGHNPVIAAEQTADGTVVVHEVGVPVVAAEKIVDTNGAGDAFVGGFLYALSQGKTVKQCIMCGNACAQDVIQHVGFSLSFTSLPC

T1 sequence (P68400 whole entry): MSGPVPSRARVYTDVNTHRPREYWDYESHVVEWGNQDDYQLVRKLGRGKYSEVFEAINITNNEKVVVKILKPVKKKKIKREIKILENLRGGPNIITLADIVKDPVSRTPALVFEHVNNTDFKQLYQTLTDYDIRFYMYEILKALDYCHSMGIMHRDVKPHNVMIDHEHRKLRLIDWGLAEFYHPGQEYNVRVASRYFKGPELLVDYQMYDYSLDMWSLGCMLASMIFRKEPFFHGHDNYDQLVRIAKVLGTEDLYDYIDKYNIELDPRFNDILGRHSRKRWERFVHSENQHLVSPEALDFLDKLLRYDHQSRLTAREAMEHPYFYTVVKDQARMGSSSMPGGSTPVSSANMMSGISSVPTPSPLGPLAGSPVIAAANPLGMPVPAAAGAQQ
Chain of Casein kinase II (P67870 whole entry): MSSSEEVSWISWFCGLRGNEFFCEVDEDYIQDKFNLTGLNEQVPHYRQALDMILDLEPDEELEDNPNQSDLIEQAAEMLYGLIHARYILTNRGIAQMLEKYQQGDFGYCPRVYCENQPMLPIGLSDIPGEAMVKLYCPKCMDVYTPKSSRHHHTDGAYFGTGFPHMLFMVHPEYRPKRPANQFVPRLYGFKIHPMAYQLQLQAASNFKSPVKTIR
Chain of Casein kinase II (P68400 whole entry): as the sequence (P68400 whole entry) above
Chain of Casein kinase II (P19784 whole entry): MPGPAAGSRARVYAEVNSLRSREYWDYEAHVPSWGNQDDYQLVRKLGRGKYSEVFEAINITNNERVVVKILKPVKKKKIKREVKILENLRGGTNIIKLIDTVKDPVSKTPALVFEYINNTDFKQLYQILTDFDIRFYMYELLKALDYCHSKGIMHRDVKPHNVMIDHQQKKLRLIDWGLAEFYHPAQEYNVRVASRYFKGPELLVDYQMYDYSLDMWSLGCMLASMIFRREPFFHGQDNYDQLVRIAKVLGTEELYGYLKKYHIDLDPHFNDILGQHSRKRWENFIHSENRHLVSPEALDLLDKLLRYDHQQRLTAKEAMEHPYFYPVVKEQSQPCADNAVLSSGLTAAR

SMILES: FC(F)(F)c1nc2c(Br)c(Br)c(Br)c(Br)c2[nH]1
Ki [1]: 400 nM

SMILES: Cc1nc2c(I)c(Cl)c(Cl)c(I)c2[nH]1
Ki [3]: 200 nM

SMILES: S=c1[nH]c2c(Br)c(Br)c(Br)c(Br)c2[nH]1
Ki [4]: 70 nM

SMILES: CS(=O)(=O)c1nc2c(Br)c(Br)c(Br)c(Br)c2[nH]1
Ki [3]: 150 nM

SMILES: FC(F)(F)c1nc2c(I)c(I)c(I)c(I)c2[nH]1
Ki (Casein kinase II): 370 nM

SMILES: Nc1ncnc2c1c(I)cn2[C@@H]1O[C@H](CO)[C@@H](O)[C@H]1O
fold change (FC) [6]: 200

Now from value to compound:

fold change (FC) [2]: 300
SMILES: O=c1[nH]ccc(Oc2ccccc2)c1I

Kd [5]: 150000 nM
SMILES: CCn1c2ccccc2c2cc(CNC)ccc21

Ki (Casein kinase II): 200 nM
SMILES: S=C1NC2C(I)=C(I)C(I)=C(I)C2N1 (stereo not given)

Ki [3]: 300 nM
SMILES: Clc1c(Cl)c(I)c2[nH]cnc2c1I
